Key:
Assay type in all cases: in vivo
[1] = tested on: Tobacco Budworm [Heliothis virescens (Fabricius)] eggs; assay: Tobacco budworm eggs (TBW-E); settings: percent in solution; 2-day old eggs
Method in brief: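 2-day eggs on paper towel, acetone dip, 0.1% and below; petri dish with larval diet, 78° F. Mortality read after control hatch and larval feeding. LC50 = % compound in solution, from dose-mortality curve.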

[2] = tested on: Cabbage Looper [Trichoplusia ni (Hubner)]; assay: Cabbage looper leaf dip (CL), 3-5 days; settings: percent in solution, second-instar larvae
Method in brief: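 LC50 values, given as percent test compound in solution, were calculated from dosage-mortality curves. Squash cotyledons were immersed 2-3 s in acetone-water (50-50) dilutions starting at 0.1%, dried on a screen, then infested with five second-instar larvae. Mortality was read 3-5 days on.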

[3] = tested on: Black Bean Aphid [Aphis fabae (Scop.)]; assay: Black bean aphid spray test on nasturtium (BBA), 48 hours; settings: percent of test compound in sprayed solution
Method in brief: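 LC50, given as percent test compound in the sprayed liquid, was calculated from dosage-mortality curves using concentrations from 0.05% downward. Sprays in 50:50 acetone-water went to runoff on ~5 cm nasturtiums carrying 25-50 aphids of mixed ages, one day after infestation. Deaths were counted 48 h later under greenhouse conditions.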

[4] = tested on: Maize weevil [Sitophilus zeamais (Motschulsky)]; assay: Maize weevil on dipped corn seeds (MW), 48 hours; settings: percent in solution, adult weevils
Method in brief: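 LC50, given as percent of compound in dipping solution, comes from dosage-mortality curves over concentrations descending from 0.01%. Four corn seeds soaked 2-3 s in 50:50 acetone:water solution were dried and held with 10 adult weevils, about 25° C, mortality read after 48 h.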

[5] = tested on: Housefly [Musca domestica]; assay: Housefly contact mortality in dishes (HF), 48 hours; settings: μg of test compound per 25 female flies
Method in brief: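 Dry-film exposure of 25 female houseflies per cage, 48 h; LC50 as μg per 25 flies.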

[6] = tested on: Tobacco Budworm [Heliothis virescens (Fabricius)] larvae; assay: Tobacco budworm larvae, contact (TBW-C), 5 days; settings: percent in solution, second-instar larvae
Method: The compounds in Tables 1 and 2 above were tested for insecticidal activity using the following testing procedures. LC50 values, based on the results of these tests and calculated according to dosage-mortality curves, are expressed in Table 3.
Tobacco Budworm [Heliothis virescens (Fabricius)]:
(a) Contact: Test compounds were diluted in a 50-50 acetone-water solution. Cotton (Gossypium sp.) cotyledons were immersed in the test solutions for 2-3 seconds and placed on a wire screen to dry. The dried leaves were placed in petri dishes containing a moistened piece of filter paper and infested with 5 second-instar tobacco budworm larvae. The dishes were placed in a high humidity chamber for 5 days, and percent mortality of the larvae recorded. Test concentrations ranged from 0.1% downward. The LC-50 values are expressed below in Table 3 under the heading "TBW-C" in terms of percent of the test compound in the solution.

[7] = tested on: Aster Leafhopper [Macrosteles fascifrens (Stal)]; assay: Aster leafhopper on dipped oat seedlings (LH), 48 hours; settings: percent in solution, adults/nymphs
Method in brief: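 LC50 values, given as percent of test compound in the dip solution, were derived from dosage-mortality curves over concentrations from 0.05% downward. Mortality was counted 48 hours after ten leafhopper adults/nymphs were enclosed on treated seedlings. The seedlings were oats, about 10 cm tall, briefly dipped in 50-50 acetone-water.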

Structure (SMILES)	LC50 TBW E (eggs) [1]	LC50 CL [2]	LC50 BBA [3]	LC50 MW [4]	LC50 HF [5]	LC50 TBW C (contact) [6]	LC50 LH [7]
CC(C)(C)C(=Nc1ccc(Cl)cc1)OCc1cccc(Oc2ccccc2)c1 [Compound 30]	> 0.1%	0.003%	> 0.05%	> 0.01%	> 100 µg	0.01%	> 0.05%
CC(C)C(=Nc1ccc(Cl)c(Cl)c1)OCc1cccc(Oc2ccc(F)cc2)c1 [Compound 37]	0.014%	0.0004%		0.009%	21 µg	0.0005%	0.002%
CC(C)C(=Nc1c(F)c(F)c(F)c(F)c1F)OCc1cccc(Oc2ccccc2)c1 [Compound 51]	0.067%	0.001%	0.01%		25 µg	0.0025%	0.001%
CC(C)C(=Nc1ccc(F)c(F)c1)OCc1cccc(Oc2ccc(F)cc2)c1 [Compound 60, N-(3,4-Difluorophenyl)-O-(4'-fluoro-3-phenoxybenzyl)isobutyrylimidate]	0.017%	0.001%		0.0075%	8 µg	0.0009%	0.002%
Cc1ccc(N=C(OCc2cccc(Oc3ccccc3)c2)C(C)C)cc1F [Compound 75]	0.01%	0.0025%	0.0006%		5 µg	0.0075%	0.0008%
CC(C)C(=Nc1ccc(F)c(C(F)(F)F)c1)OCc1cccc(Oc2ccc(F)cc2)c1 [Compound 120]	0.04%	0.00015%	0.0006%	> 0.01%	14 µg	0.0025%	0.0003%
CCOc1ccc(N=C(OCc2cccc(Oc3ccccc3)c2)C(Cl)Cl)cc1 [Compound 138]	0.08%	0.005%	0.003%	> 0.01%	19 µg	0.015%	
COc1ccccc1N=C(OCc1cccc(Oc2ccccc2)c1)C(C)C [Compound 145]	> 0.1%	0.05%	> 0.05%		> 100 µg	0.05%	> 0.05%
CC(C)C(=Nc1cccc(Cl)c1)OCc1cccc(Oc2ccc(F)cc2)c1 [Compound 194]	0.04%	0.0005%	0.001%	> 0.01%	10 µg	0.0017%	0.0005%
CC(C)C(=Nc1ccc(F)c(Cl)c1)OCc1cccc(Oc2ccc(C#N)cc2)c1 [Compound 196]	> 0.1%	0.0006%		> 0.01%	17 µg	0.001%	> 0.05%
CC(C)C(=Nc1cccc(C(F)(F)F)c1)OCc1cccc(Oc2ccc(F)cc2)c1 [Compound 202]	> 0.1%	0.00024%	0.003%	> 0.01%	18 µg	0.0007%	0.0003%
CC(C)C(=Nc1ccc(F)cc1F)OCc1cccc(Oc2ccc(F)cc2)c1 [Compound 209]	0.1%	0.0007%	0.01%	> 0.01%	17 µg	0.005%	0.001%
CCC(C)C(=Nc1ccc(F)c(Cl)c1)OCc1cccc(Oc2ccc(F)cc2)c1 (stereo not shown) [Compound 210]	0.045%	0.00028%	0.01%	> 0.01%	35 µg	0.0015%	
CC(C)C(=Nc1ccc2c(c1)OC(C)(C)O2)OCc1cccc(Oc2ccc(F)cc2)c1 [Compound 219]	0.027%	0.00025%	0.003%	> 0.01%	50 µg	0.004%	
CC(C)C(=Nc1ccc(Br)cc1)OCc1cccc(Oc2ccc(F)cc2)c1 [Compound 226]	0.1%	0.0005%	0.01%	0.009%	16 µg	0.001%	0.002%
CC(C)C(=Nc1ccc(I)cc1)OCc1cccc(Oc2ccc(F)cc2)c1 [Compound 234]	0.09%	0.00045%	0.003%	> 0.01%	38 µg	0.0013%	0.003%
CC(C)C(=Nc1ccc(F)c(C(F)(F)F)c1)OCc1ccc(F)c(Oc2ccc(Cl)cc2)c1 [Compound 297]	0.025%	0.00027%		0.0071%	23 µg	0.00075%	0.0001%
C=C(C)C(=Nc1ccc(C(F)(F)F)cc1)OCc1ccc(F)c(Oc2ccc(Cl)cc2)c1 [Compound 432]	0.032%	0.0012%	0.001%	> 0.01%	< 100 µg	< 0.1%	

Source: patent US5045566A, “Novel imidate insecticides” (ICI Americas Inc., priority 1989, dated 1991)
